Experimental data taken from patent US6710048B2, “Pyrazine derivatives as modulators of tyrosine kinases” (Ortho-McNeil Pharmaceutical, Inc., priority 2000, dated 2004).
Read-outs that look alike come from different tables or passages of the source.

What was measured:
[1] = target: HER2 (Homo sapiens, UniProt P04626); assay: HER2 kinase selectivity assay; type: biochemical; conditions: Table 4 kinase selectivity; read-out: IC50, Assay 16 HER2
Protocol: (§1) Assays to test compound inhibition of other kinases were preformed using methods that measure the amount of phosphorylation of a biotinylated peptide substrate. Biotinylated peptide substrates were selected from the literature as appropriate for the enzyme being evaluated. The general procedure used to assay for kinase activity is as follows: A kinase reaction mix was prepared in 50 mM Tris-HCl pH=8, 10 mM MgCl2, 0.1 mM NaVO4, 1 mM DTT, 5-10 μM ATP, 0.25-1 μM biotinylated peptide substrate, 0.2-0.8 μCuries per well ^33P-γ-ATP [2000-3000 Ci/mmol]. Assay conditions vary slightly for each protein kinase, for example, insulin receptor kinase requires 10 mM MnCl2 for activity and Calmodulin-dependent protein kinase requires calmodulin and 2 mM CaCl2. The reaction mixture was dispensed into the wells of a streptavidin coated Flashplate and 1 μl drug stock in 100% DMSO was added to a 100 μl reaction volume resulting in a final concentration of 1% DMSO in the reaction. Enzyme was diluted in 50 mM Tris-HCl pH=8.0, 0.1% BSA and added to each well. The reaction was incubated for one hour at 30° C. in the presence of compound. After one hour the reaction mix was aspirated from the plate and the plate was washed with PBS containing 100 mM EDTA. The plate was read on a scintillation counter to determine ^33P-γ-ATP incorporated into the immobilized peptide. Test compounds were assayed in duplicate at 8 concentrations [100 tM, 10 μM, 1 μM, 100 nM, 10 nM, 1 nM, 100 μM, 10 μM]. A maximum and minimum signal for the assay was determined on each plate. The IC50 was calculated from the dose response curve of the percent inhibition of the maximum signal in the assay according to the formula [max signal−background/test compound signal−background (100)=% inhibition] by graphing the percent inhibition against the log concentration of test compound. Known inhibitor compounds appropriate for the kinase being assayed were also included on each plate.

[2] = target: FGF-R2 (Homo sapiens, UniProt P21802); assay: FGF-R2 kinase selectivity assay; type: biochemical; conditions: Table 4 kinase selectivity; read-out: IC50, Assay 15 FGF-R2
FGF-R2, sequence (P21802 22-821, species assumed): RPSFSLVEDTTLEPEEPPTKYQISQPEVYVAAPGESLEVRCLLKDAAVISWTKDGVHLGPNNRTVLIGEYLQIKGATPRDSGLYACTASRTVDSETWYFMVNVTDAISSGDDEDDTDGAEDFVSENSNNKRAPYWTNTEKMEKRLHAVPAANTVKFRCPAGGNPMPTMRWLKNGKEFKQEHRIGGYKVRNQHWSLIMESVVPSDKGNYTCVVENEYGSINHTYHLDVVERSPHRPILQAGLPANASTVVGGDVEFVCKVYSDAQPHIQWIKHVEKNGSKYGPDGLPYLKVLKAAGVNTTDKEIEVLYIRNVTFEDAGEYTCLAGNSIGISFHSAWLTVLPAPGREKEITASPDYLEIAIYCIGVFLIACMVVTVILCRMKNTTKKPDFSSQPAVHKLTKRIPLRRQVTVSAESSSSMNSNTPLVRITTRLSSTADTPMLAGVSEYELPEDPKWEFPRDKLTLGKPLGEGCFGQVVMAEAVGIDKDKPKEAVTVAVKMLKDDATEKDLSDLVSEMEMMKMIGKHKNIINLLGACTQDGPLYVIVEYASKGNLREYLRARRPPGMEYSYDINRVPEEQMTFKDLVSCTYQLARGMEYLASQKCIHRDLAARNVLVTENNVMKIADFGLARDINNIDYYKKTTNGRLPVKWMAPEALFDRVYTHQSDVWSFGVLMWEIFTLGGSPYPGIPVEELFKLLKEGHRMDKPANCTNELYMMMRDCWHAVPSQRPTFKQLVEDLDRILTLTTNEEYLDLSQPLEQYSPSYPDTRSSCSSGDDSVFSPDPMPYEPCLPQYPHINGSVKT
Protocol: as §1

[3] = target: T1, CDK1 (cyclin dependent kinase 1) / cyclin B (Homo sapiens, UniProt P06493); assay: CDK1 kinase assay; type: biochemical
T1 construct: purchased New England Biolabs 6020; host or cells: insect cells
T1 sequence (P06493 whole entry): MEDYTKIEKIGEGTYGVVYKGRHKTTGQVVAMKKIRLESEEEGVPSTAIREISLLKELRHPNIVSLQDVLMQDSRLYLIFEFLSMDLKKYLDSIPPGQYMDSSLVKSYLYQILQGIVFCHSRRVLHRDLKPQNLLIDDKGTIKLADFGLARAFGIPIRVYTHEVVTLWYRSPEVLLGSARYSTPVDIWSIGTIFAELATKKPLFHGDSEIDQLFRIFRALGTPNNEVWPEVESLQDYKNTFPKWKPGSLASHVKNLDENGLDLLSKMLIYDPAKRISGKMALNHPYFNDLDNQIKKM
T1 sequence (P14635 whole entry partner): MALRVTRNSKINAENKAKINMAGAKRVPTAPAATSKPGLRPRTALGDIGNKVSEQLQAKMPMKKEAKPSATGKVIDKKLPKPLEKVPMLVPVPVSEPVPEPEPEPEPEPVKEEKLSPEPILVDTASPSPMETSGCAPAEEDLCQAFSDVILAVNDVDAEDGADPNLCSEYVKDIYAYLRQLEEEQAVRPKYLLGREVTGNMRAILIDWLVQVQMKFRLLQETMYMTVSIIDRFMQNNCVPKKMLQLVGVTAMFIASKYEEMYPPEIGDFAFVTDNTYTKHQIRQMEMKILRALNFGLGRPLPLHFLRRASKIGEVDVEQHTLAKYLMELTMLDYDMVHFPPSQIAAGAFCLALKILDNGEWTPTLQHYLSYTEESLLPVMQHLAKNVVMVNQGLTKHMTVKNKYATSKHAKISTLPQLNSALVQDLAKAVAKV
Protocol: (§2) The term n.d. means not tested.
as §1, with “Test compounds were assayed in duplicate at 8 concentrations [100 tM, 10 μM, 1 μM, 100 nM, 10 nM, 1 nM, 100 μM, 10 μM].” left out
VEGF-R (vascular endothelial growth factor receptor-2) is a fusion protein containing a polyhistidine tag at the N-terminus followed by amino acids 786-1343 of the rat VEGF-R2 kinase domain (GenBank Accession #U93306). CDK1 (cyclin dependent kinase 1) is isolated from insect cells expressing both the human CDK1 catalytic subunit and its positive regulatory subunit cyclin B (New England Biolabs, Beverly, Mass., Cat. #6020). CDK4 (cyclin dependent kinase 4) contains amino acids 769 to 921 of the mouse […] protein found in the GST-retinoblastoma protein construct (Santa Cruz Biotechnology, Santa Cruz, Calif.; Cat. #SC-4112). Insulin Receptor Kinase consists of residues 941-1313 of the cytoplasmic domain of the beta-subunit of the human insulin receptor (BIOMOL, Plymouth Meeting, Pa., Cat. #SE-195). Protein Kinase A is the catalytic subunit of cAMP dependent protein kinase-A purified from bovine heart (Upstate Biotech, Lake Placid, N.Y., Cat#14-114). PKC (protein kinase-C) is the gamma or beta isoform of the human protein produced in insect cells (BIOMOL, Plymouth Meeting, Pa., Cat. #SE-143). Casein Kinase 1 is a truncation at amino acid 318 of the C-terminal portion of the rat CK1 delta isoform produced in E.coli (New England Biolabs, Beverly, Mass., Cat. #6030). Casein Kinase 2 includes the alpha and beta subunits of the human CK2 protein produced in E.coli (New England Biolabs, Beverly, Mass., Cat. #6010). Calmodulin Kinase (calmodulin-dependent protein kinase 2) is a truncated version of the alpha subunit of the rat protein produced in insect cells (New England Biolabs, Beverly, Mass., Cat. #6060). Glycogen Synthase Kinase-3 is the beta isoform of the rabbit enzyme produced in E. coli (New England Biolabs, Beverly, Mass., Cat. #6040). MAP Kinase is the rat ERK-2 isoform containing a polyhistidine tag at the N-terminus produced in E. coli. and activated by phosphorylation with MEK1 prior to purification (BIOMOL, Plymouth Meeting, Pa., Cat. #SE-137). EGFR (epidermal growth factor receptor) is purified from human A431 cell membranes (Sigma, St. Louis, Mo., Cat.# E3641). […]

[4] = target: T2, VEGF-R (vascular endothelial growth factor receptor-2) (Rattus norvegicus, UniProt O08775); assay: VEGF-R screening assay (33P FlashPlate kinase assay); type: biochemical
T2 construct: polyhistidine (6xHis) (N)
T2 sequence (O08775 786-1343): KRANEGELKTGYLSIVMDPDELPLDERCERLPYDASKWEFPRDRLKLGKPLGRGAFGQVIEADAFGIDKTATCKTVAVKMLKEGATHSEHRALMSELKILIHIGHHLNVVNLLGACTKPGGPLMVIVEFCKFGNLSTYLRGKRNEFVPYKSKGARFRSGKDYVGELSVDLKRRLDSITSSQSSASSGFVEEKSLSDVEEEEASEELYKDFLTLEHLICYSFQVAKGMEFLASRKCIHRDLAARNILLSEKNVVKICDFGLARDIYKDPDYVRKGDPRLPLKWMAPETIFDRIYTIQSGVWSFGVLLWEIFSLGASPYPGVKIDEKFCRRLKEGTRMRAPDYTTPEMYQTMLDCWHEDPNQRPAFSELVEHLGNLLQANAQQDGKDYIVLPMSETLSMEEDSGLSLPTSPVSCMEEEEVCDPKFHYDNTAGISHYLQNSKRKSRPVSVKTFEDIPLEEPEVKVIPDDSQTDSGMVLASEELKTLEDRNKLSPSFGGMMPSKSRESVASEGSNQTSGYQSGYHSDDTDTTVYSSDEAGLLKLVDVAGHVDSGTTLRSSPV
Protocol: A kinase reaction mixture was prepared containing 50 mM Tris-HCl pH=8, 10 mM MgCl2, 0.1 mM NAPO4, 1 mM DTT, 10 μM ATP, 0.025 μM biotinylated peptide substrate and 0.8 μCuries per well ^33P-γ-ATP [2000-3000 Ci/mmol]. 70 μl of the kinase reaction mixture was dispensed into the well of a streptavidin coated FlashPlate™ (Cat. # SMP103, NEN, Boston, Mass.). Then 1 μl of test compound stock in 100% DMSO was added to the wells resulting in a final concentration of 1% DMSO in the reaction with a 100 μl final reaction volume. Next, soluble rat tyrosine kinase containing an N-terminal 6×HIS tag was diluted in 50 mM Tris-HCl pH=8.0, 0.1% BSA at a concentration of 5 ng per microliter and 30 μl (150 ng enzyme per test well) was added to each well to initiate the reaction. The reaction was incubated for one hour at 30° C. At the end of the 1-hour incubation, the reaction was terminated by aspirating the reaction mixture from the plate and washing the wells twice with PBS containing 100 mM EDTA. The PLCI biotinylated peptide substrate becomes immobilized on the Flashplate™ and the incorporation of ^33P-γ-ATP was measured by reading the plate on a scintillation counter. Inhibition of the enzymatic activity of the VEGF-R was measured by observing a reduced amount of ^33P-γ-ATP incorporated into the immobilized peptide.
as §2, §1
VEGF-R (vascular endothelial growth factor receptor-2) is a fusion protein containing a polyhistidine tag at the N-terminus followed by amino acids 786-1343 of the rat VEGF-R2 kinase domain (GenBank Accession #U93306). CDK1 (cyclin dependent kinase 1) is isolated from insect cells expressing both the human CDK1 catalytic subunit and its positive regulatory subunit cyclin B (New England Biolabs, Beverly, Mass., Cat. #6020). CDK4 (cyclin dependent kinase 4) contains amino acids 769 to 921 of the mouse […] protein found in the GST-retinoblastoma protein construct (Santa Cruz Biotechnology, Santa Cruz, Calif.; Cat. #SC-4112). […]

[5] = test system: PC-3 prostate adenocarcinoma; assay: Cell proliferation assay (14C-thymidine incorporation), PC-3; type: cell-based; conditions: Homo sapiens, read-out: Inhibition of cell proliferation IC50
Protocol: (§3) The ability of a test compound to inhibit the proliferation of cell growth was determined by measuring incorporation of ^14C-labelled thymidine into newly synthesized DNA within the cells. This method was used on cell lines derived from carcinomas originating from several tissues such as HeLa cervical adenocarcinoma (American Type Culture Collection (ATCC), Virginia, Cat. #CCL-2), A375 malignant melanoma (ATCC CRL-1619), SK-OV-3 ovarian adenocarcinoma (ATCC HTB-77) HCT-116 colon carcinoma (CCL-247) and PC-3 prostate adenocarcinoma (ATCC CRL-1435). The method was also used on primary cells such as HUVEC endothelial cells (ATCC CRL-1730). In this way the effect of a compound on cell growth of cells with many different phenotypes can be determined. Cells were trypsinized and counted and 3000-8000 cells were added to each well of a 96-well CytoStar tissue culture treated scintillating microplate (Amersham #RPNQ0160) in complete medium in a volume of 100 μl. Cells were incubated for 24 hours in complete medium at 37° C. in an atmosphere containing 5% CO2.
(§4) Next, 1 μl of test compound in 100% DMSO was added to the wells of the plate. DMSO only was added to control wells. Cells were incubated for 24 more hours in complete medium at 37° C. in an atmosphere containing 5% CO2. Methyl ^14C-thymidine 56 mCi/mmol (NEN #NEC568 or Amersham #CFA532) was diluted in complete medium and 0.2 μCi/well was added to each well of the CytoStar plate in a volume of 20 μl. The plate was incubated for 24 hours at 37° C. plus 5% CO2 in drug plus ^14C-thymidine. The contents of the plate were discarded into a ^14C radioactive waste container by inverting the plate and the plate was washed twice with 200 μl PBS. 200 μl of PBS is then added to each well. The top of the plate was sealed with a transparent plate sealer and a white plate backing sealer (Packard #6005199) was applied to the bottom of the plate. The degree of Methyl ^14C-thymidine incorporation was quantified on a Packard Top Count.

[6] = test system: MDA-MB-231; assay: Cell proliferation assay (14C-thymidine incorporation), MDA-MB-231; type: cell-based; conditions: Homo sapiens, read-out: Inhibition of cell proliferation IC50
Protocol: as §3, §4

[7] = test system: HCT-116 colon carcinoma; assay: Cell proliferation assay (14C-thymidine incorporation), HCT-116; type: cell-based; conditions: Homo sapiens, read-out: Inhibition of cell proliferation IC50
Protocol: as §3, §4

[8] = test system: HeLa cervical adenocarcinoma; assay: Cell proliferation assay (14C-thymidine incorporation), HeLa; type: cell-based; conditions: Homo sapiens, read-out: Inhibition of cell proliferation IC50
Protocol: as §3, §4

[9] = test system: SK-OV-3 ovarian adenocarcinoma; assay: Cell proliferation assay (14C-thymidine incorporation), SK-OV-3; type: cell-based; conditions: Homo sapiens, read-out: Inhibition of cell proliferation IC50
Protocol: as §3, §4

[10] = Tables 1-3, >10 or >100 = no 50% inhibition at highest dose tested, read-out: CDK IC50
[11] = Tables 1-3, >10 or >100 = no 50% inhibition at highest dose tested, read-out: VEGF-R IC50

HER2, sequence (P04626 23-1255, species assumed): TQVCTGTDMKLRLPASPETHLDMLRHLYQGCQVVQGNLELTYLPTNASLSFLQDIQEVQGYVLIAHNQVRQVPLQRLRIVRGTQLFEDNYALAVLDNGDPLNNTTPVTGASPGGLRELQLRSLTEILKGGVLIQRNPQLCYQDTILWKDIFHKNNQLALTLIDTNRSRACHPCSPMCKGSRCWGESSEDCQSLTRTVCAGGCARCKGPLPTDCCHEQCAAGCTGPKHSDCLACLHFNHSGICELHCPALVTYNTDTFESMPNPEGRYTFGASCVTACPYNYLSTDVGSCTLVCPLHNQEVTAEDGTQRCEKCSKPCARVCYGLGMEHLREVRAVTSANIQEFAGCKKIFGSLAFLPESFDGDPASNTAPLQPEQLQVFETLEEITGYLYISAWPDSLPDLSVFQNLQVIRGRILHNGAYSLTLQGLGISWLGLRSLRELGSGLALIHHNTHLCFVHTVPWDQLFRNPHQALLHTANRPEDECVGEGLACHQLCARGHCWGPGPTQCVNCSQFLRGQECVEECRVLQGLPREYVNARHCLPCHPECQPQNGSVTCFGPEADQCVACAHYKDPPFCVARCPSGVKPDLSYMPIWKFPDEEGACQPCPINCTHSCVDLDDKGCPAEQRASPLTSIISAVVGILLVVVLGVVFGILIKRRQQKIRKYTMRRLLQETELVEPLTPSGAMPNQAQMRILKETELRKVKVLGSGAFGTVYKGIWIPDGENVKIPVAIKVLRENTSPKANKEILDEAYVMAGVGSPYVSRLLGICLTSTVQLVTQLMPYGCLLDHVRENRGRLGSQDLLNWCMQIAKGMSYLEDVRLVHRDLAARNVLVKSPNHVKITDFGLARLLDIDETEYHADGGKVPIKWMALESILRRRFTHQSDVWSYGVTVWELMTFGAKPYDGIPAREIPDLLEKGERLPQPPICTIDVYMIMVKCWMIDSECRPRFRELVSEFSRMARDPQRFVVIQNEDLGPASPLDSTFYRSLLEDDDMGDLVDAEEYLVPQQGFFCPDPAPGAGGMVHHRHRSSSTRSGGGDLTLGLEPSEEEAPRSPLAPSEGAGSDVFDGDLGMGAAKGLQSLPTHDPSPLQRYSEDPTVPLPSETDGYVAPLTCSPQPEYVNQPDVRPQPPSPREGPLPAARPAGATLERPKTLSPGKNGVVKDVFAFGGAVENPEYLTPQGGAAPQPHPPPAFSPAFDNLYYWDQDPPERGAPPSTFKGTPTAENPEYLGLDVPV

Row | Structure (SMILES) | IC50 [3, 10] [µM] | IC50 [4, 11] [µM] | IC50 [8] [µM] | further results
1 | Clc1cccc(Nc2cncc(-c3cncc(NCCCn4ccnc4)c3)n2)c1 [Cmd 77] | > 10 | 0.03 |  | IC50 [1]: 0.966 µM; IC50 [2]: 0.221 µM; IC50 ([3]; Table 4 kinase selectivity, 10 = approximate value, read-out: IC50, Assay 2 CDK1): ~10 µM; IC50 ([4]; Table 4 kinase selectivity, read-out: IC50, Assay 1 VEGF-R): 0.03 µM
2 | Clc1cccc(Nc2cncc(-c3cncc(NCCCc4ccncc4)c3)n2)c1 [Cmd 71, N-(3-chlorophenyl)-6-[5-[[3-(4-pyridinyl)propyl]amino]-3-pyridinyl]-2-pyrazinamine] |  |  | 3.8 | IC50 [5]: 3.2 µM; IC50 [6]: 1.88 µM; IC50 [7]: 3.29 µM
3 | Clc1cccc(Nc2cncc(-c3cncc(NCCCn4cncn4)c3)n2)c1 [Cmd 76, N-(3-chlorophenyl)-6-[5-[[3-(1H-1,2,4-triazol-1-yl)propyl]amino]-3-pyridinyl]-2-pyrazinamine] |  |  | 4.94 | IC50 [9]: 12.9 µM
4 | OCCNc1cncc(-c2cncc(Nc3cccc(Cl)c3)n2)c1 [Cmd 31] | ~10 | 0.15 |  | 
5 | OCCCNc1cnc(Cl)c(-c2cncc(Nc3cccc(Cl)c3)n2)c1 [Cmd 110] | > 10 | > 10 |  | 
6 | Clc1cccc(Nc2cncc(-c3cncc(NCCOc4ccccc4)c3)n2)c1 [Cmd 83] | > 10 | > 10 |  | 
7 | Clc1cccc(Nc2cncc(-c3cncc(NCCCn4cccn4)c3)n2)c1 [Cmd 75, N-(3-chlorophenyl)-6-[5-[[3-(1H-pyrazol-1-yl)propyl]amino]-3-pyridinyl]-2-pyrazinamine] |  |  | 12.5 | IC50 [5]: 5.34 µM; IC50 [9]: > 10 µM
8 | COCCC(=O)Nc1cncc(-c2cncc(Nc3cccc(Cl)c3)n2)c1 [Cmd 103] | > 10 | 0.59 |  | 
9 | Clc1cccc(Nc2cncc(-c3cncc(NCCCc4ccccc4)c3)n2)c1 [Cmd 80] | > 10 | 2.28 |  | 
10 | COCCNC(=O)c1cncc(-c2cncc(Nc3cccc(Cl)c3)n2)c1 [Cmd 36] | > 100 | ~10 |  | 
11 | Clc1cccc(Nc2cncc(-c3cncc(NCCCc4cccnc4)c3)n2)c1 [Cmd 72, N-(3-chlorophenyl)-6-[5-[[3-(3-pyridinyl)propyl]amino]-3-pyridinyl]-2-pyrazinamine] |  |  | 5.7 | IC50 [5]: 2.58 µM; IC50 [6]: 2.57 µM; IC50 [7]: 4.97 µM
12 | OCCCNc1cncc(-c2cncc(NCc3ccccc3)n2)c1 [Cmd 62] | 34.4 | 1.05 |  | 
